Measurements published in patent publication US20230390296A1, “NOVEL TREATMENT AND PREVENTION OF SARCOPENIA-RELATED DISEASES” (KEIO UNIVERSITY, priority 2020, published 2023).
Values joined by “and” are separate entries in the source; they are usually repeats but may differ in a detail not shown here. Equal entries are not always repeated. “Also recorded” adds a separate entry of the source.

Experiments:
[1] = tested on: muscle of mice without exercise; experiment: Gene analysis (RNA-seq, GO, upstream transcription factor, GSEA) of muscle of administered mice without exercise; type: in vivo, mouse
Description: Gene analysis (RNA-seq) was performed in old mice administered with OK-1 with improved muscle strength and muscle mass. The method and reagent used were the following.
The quality of all reads was checked by using FastQC v0.11.8, and low quality reads were removed using Trimomatic (ver 0.38).
LEADING: 20 (remove bases with a quality score of less than 20 from the leading reads), TRAILING: 20, SLIDINGWINDOW: 4:15 (window size 4, average quality 15), MINLEN: 36 (remove reads that are less than […])
Each read obtained after filtering was mapped to reference genome GRCm38 by using STAR (ver 2.7.0.f). Mapping was performed using the default values of STAR.
1) Index preparation • Run Mode; genomeGenerate • Reference; GRCm38 • Annotation file; genecode version M24 • sjdbOverhang; 150 alignment was performed using the index prepared above. In addition, this was performed with default values without options.
To count the number of genes, featuecount (ver 1.6.4) was used to count the number for each gene name defined by a symbol name, where the number was counted in gene symbol units defined in genecode version M24.
The counted numbers were filtered for genes with a count data of 0 in all samples, subjected to TMM normalization using edgeR (ver 3.22.3), and corrected among samples. Initially, for understanding of the overall picture of the data, primary component analysis and clustering analysis were performed using count data after removal of low expression genes.
Differential expression of a pattern designated based on the obtained expression values was compared.
Differentially expressed genes were tested using edgeR. As the definition of differentially expressed gene, uncorrected p. value<0.05 was used as a cut-off value, and Fold Change of “pattern not used” and “2 or more or 0.5 or less” were used as the cut-off for calculation.
Gene enrichment analysis was performed on the resulting differentially expressed gene using gprofiler2 (version 0.1.6).
Expression values after normalization of resulting differentially expressed genes were extracted. Visual heatmap was drawn to study the change. […] This analysis was performed using RcisTarget (ver 1.8.0). RcisTarget performed analysis using a mouse database for 10 kbp upstream of TSS stored in RcisTarget. Details of analysis are the following (cited from https://scenic.aertslab.org/tutorials/RcisTarget.html).
The first step to estimate the over-representation of each motif on the gene-set is to calculate the Area Under the Curve (AUC) for each pair of motif-geneSet. This is calculated based on the recovery curve of the gene-set on the motif ranking (genes ranked decreasingly by the score of motif in its proximity, as provided in the motifRanking database).
The selection of significant motifs is done based on the Normalized Enrichment Score (NES). The NES is calculated—for each motif—based on the AUC distribution of all the motifs for the gene-set [(x-mean)/sd]. Those motifs that pass the given threshold (3.0 by default) are considered significant. […] In this way, the third step of the workflow is to identify which genes (of the gene-set) are highly ranked for each of the significant motifs. These genes were identified by a faster implementation based on an approximate distribution using the average at each rank.
The category of genes with a change in expression identified in Example 2 was analyzed with a software (GSEA), which is different from that in Example 2 (GO) (FIG. 3). Analysis with GSEA was performed as follows. GSEA performed categorization by the regulating gene. This is different from GO, which performs categorization by function.
Data was created on the relationship of activattion+unknown and repression+unknown for regulatory genes and transcription factors installed in TRRUST ver2. Gene enrichment analysis was performed using GSEA (https://www.gsea-msigdb.org/gsea/index.jsp) based on respective gene sets. local gsea-3.0 that starts up within java was used for GSEA.

old mice (C57BL/6J) = experiment: Treadmill test of muscle strength (endurance) in young and old mice; type: in vivo, mouse
From the text: Decrease in endurance in old mice In order to confirm that a decrease in muscle strength is observed in mouse models (C57BL/6J) (purchased from Oriental Yeast), the muscle strength (endurance) in 15-week old young mice and 79-week-old old mice was investigated in a treadmill test in accordance with the following (FIG. 1A). Prior to recording the performance, mice were trained for 3 days to acclimate the mice to the equipment. Electric stimulation grid was adjusted to 1 mA, and the gradient was set to 15 degrees. On the first day of training, mice were induced to walk for 10 minutes at a rate of 10 m/minute, allowed to rest for 10 minutes, and then induced to walk for 10 minutes at a rate of 10 m/minute on a treadmill. On day 2 and day 3, the first two steps were the under the same conditions as day 1, and then the mice were induced to start walking at 10 m/minute. The speed was increased by 1 m/minute until reaching the maximum speed of 20 m/minute. On day 4, the maximum exercise endurance was measured. Six mice were placed on a treadmill, which was started at a belt speed of 5 m/minute for 5 minutes to let the mice warm up. The speed was increased 1 m/minute until reaching the maximum speed of 20 m/minute. After making the mice run for 5 minutes, the speed was increased from 20 m/minute to 21 m/minute for 10 minutes. The mice were then forced to run at 22 m/minute until stalling on the electric stimulation grid for 10 seconds. The distance traveled until stalling for 10 seconds was measured.
(§1) OK-1 manufactured in Manufacturing Example 1 was intraperitoneally administered to young and old mice twice a week over three months. The dosage was 20 mg/kg/day.
74-week old mice (C57B16/J) were purchased from Oriental Yeast. […] Muscle strength (endurance) and grip strength of mice administered with C-82 were then measured through a treadmill test and smart grip strength meter for rats and mice (Muromachi Kikai Co., Ltd.), respectively. […]

[2] = tested on: 74-week old mice (C57B16/J); experiment: Grip strength test (smart grip strength meter); type: in vivo, mouse; details: 7 mg/kg and 20 mg/kg intraperitoneal twice a week for 6 weeks
Description: 74-week old mice (C57B16/J) were purchased from Oriental Yeast. Various concentrations (0 mg/kg (control), 7 mg/kg, and 20 mg/kg) of C-82 were administered twice a week through a 6-week intraperitoneal administration until reaching 80-week old. Muscle strength (endurance) and grip strength of mice administered with C-82 were then measured through a treadmill test and smart grip strength meter for rats and mice (Muromachi Kikai Co., Ltd.), respectively. The treadmill test was conducted under the same condition as Example 1.

[3] = tested on: Diabetes mouse models (e.g., KK/TaJcl); experiment: Diabetes mouse model; type: in vivo; details: administered versus non-administered group
Description: Diabetes mouse models (e.g., KK/TaJcl) were divided into two groups. OK was administered to one of the groups, and OK was not administered to the other group.

[4] = tested on: Mice induced to be obese by feeding high fat feed; experiment: High fat feed obese mice (metabolism); type: in vivo, mouse; details: administered versus non-administered group
Description: Mice induced to be obese by feeding high fat feed were divided into two groups. OK was administered to one of the groups, and OK was not administered to the other group.

[5] = Body weight and behavior during the dosing period; type: in vivo, mouse; details: intraperitoneal, twice a week over three months, 20 mg/kg/day; young and old mice
Description: as §1

Row | SMILES | change in gene expression in muscles ([1]; C-82 administration, same method as Example 2) | muscle strength (endurance) through a treadmill test (old mice (C57BL/6J); 74-week old mice, 7 mg/kg and 20 mg/kg intraperitoneal twice a week for 6 weeks, versus no administration) | grip strength [2] | insulin secretion and insulin resistance [3] | metabolism [4] | gene group associated with OK-1: genes associated with regulation of muscle without exercise [1] | upstream factors from upstream transcription factor analysis [1] | gene group associated with OK-1 by GSEA: involved in increase in muscle ([1]; GSEA, TRRUST ver2) | genes decreased (downregulated expression) significantly in muscle ([1]; OK-1 administration, p<0.05) | genes increased (upregulated expression) significantly in muscle ([1]; OK-1 administration, p<0.05) | change in body weight and behavioral abnormality during the dosing period [5] | muscle strength (endurance) through a treadmill test (old mice (C57BL/6J); intraperitoneal, twice a week over three months, 20 mg/kg/day, young (15-week) and old (79-week) mice)
1 | C[C@H]1[C@H]2N(C(=O)CN(C)N2C(=O)NCc2ccccc2)[C@@H](Cc2ccc(O)cc2)C(=O)N1Cc1cccc2cccnc12 [C-82, (6S,9S)—N-benzyl-6-(4-hydroxybenzyl)-2,9-dimethyl-4,7-dioxo-8-(quinolin-8-ylmethyl)hexahydro-2H-pyrazino[2,1-c][1,2,4]triazine-1(6H)-carboxamide] | achieves the same result as OK-1 | significant increase in muscle strength (endurance); also recorded: increased significantly | a significant difference was not observed in grip strength, a tendency for a concentration dependent increase was observed; also recorded: a significant difference was not observed in grip strength, a tendency of a concentration dependent increase was observed |  |  |  |  |  |  |  |  | 
2 | C[C@H]1[C@H]2N(C(=O)CN(C)N2C(=O)NCc2ccccc2)[C@@H](Cc2ccc(OP(=O)(O)O)cc2)C(=O)N1Cc1cccc2cccnc12 [OK-1] |  |  |  | at least one of insulin secretion and insulin resistance is improved | metabolism is improved | Ppara, Pou2f2, Foxo1, Pparg, Pou2f1, Trp63, Sp1, Tcf3, Zeb1, Srebf1, Sp3, Ebf1, Mycn, and Pbx1 | Hnf4a and Gata4, Nrf1, and Hnf1a | IRF1, NFE2L2, PPARG, FOXO1, CEBPB, PPARA, CEBPA, STAT1, STAT5A, MYOD1, REL, NFKB1, SPI1, IRF8, SP1, and FOXM1 | 445 genes and 595 genes | 206 genes and 181 genes | a significant change in body weight and behavioral abnormality were not observed | increase in muscle strength due to OK-1 administration, which is specific to old mice
